According to paper PMC4263427 (Biochemistry, 2014):

Target: T1, class II fructose 1,6-bisphosphate aldolase (SaFBA) (Staphylococcus aureus, UniProt Q5HE75)
T1 sequence (Q5HE75 1-286): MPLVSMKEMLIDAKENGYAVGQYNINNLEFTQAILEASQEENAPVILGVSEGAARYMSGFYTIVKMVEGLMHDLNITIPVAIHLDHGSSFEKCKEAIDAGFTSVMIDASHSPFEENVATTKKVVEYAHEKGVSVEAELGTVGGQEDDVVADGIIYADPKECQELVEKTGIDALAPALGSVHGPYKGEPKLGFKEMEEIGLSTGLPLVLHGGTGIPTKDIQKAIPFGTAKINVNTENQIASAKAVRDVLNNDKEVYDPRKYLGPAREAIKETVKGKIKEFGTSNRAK
Assay: coupled fluorescence
Format: biochemical

- Ki: 96 ± 22 µM
Compound: O=C(O)c1ccc2cccc(O)c2n1 [HCA, 8-hydroxyquinoline-2-carboxylic acid]
